Assay results published in publication PMC9403987 (Frontiers in Oncology, 2022).

What was measured:
BRL-3a = assay: Cell proliferation assay; type: cell-based, Rattus norvegicus; settings: liver, normal, 72 hours
Experimental: (§1) To quantify cell proliferation, either the nuclei of live cells were counted following staining with 4’,6-diamidino-2-phenylindole (DAPI; Sigma-Aldrich, Burlington, MA, USA), or metabolically active cells were detected using a CellTiter-Glo assay (Promega Corporation, Madison, WI, USA). Cells from a range of human and mammalian tumor cell lines (American Type Culture Collection, Manassas, VA, USA) were seeded at 4000 cells per well in 100 μL of culture medium in a 96-well plate and incubated overnight at 37°C with 5% CO2. […] In the DAPI staining method, cells were washed using 1× phosphate-buffered saline (PBS; Gibco Thermo Fisher Scientific, Waltham, MA, USA), fixed with 4% formaldehyde, permeabilized with 0.2% Triton X-100 (Sigma-Aldrich), washed again, and stained with 1 μg/mL DAPI to visualize cell nuclei. Cells were washed with 1× PBS three times, and 100 μL 1× PBS was added to each well. Plates were scanned using an IN Cell Analyzer 2200 (GE Healthcare Life Sciences, Chicago, IL, USA) and the number of cells per well was recorded. In the CellTiter-Glo assay, 60 μL of CellTiter-Glo luminescent solution was added to each well after incubation with the test compounds, and the assay plate was scanned using a Tecan Infinite M1000 PRO microplate reader (Tecan Group AG, Männedorf, Switzerland) to record luminescent signals.

Huh-7 = assay: Cell proliferation assay; type: cell-based, Homo sapiens; settings: Huh-7, liver, hepatocellular carcinoma, 72 hours
Experimental: as §1

HCC827 = assay: Cell proliferation assay; type: cell-based, Homo sapiens; settings: HCC827, lung carcinoma, 72 hours
Experimental: as §1

SNU-398 = assay: Cell proliferation assay; type: cell-based, Homo sapiens; settings: SNU-398, liver, hepatocellular carcinoma, 72 hours
Experimental: as §1

LN229 = assay: Cell proliferation assay; type: cell-based, Homo sapiens; settings: LN229, brain, glioblastoma, 72 hours
Experimental: as §1

MDA-MB-468 = assay: Cell proliferation assay; type: cell-based, Homo sapiens; settings: MDA-MB-468, breast carcinoma, 72 hours
Experimental: as §1

SNU-739 = assay: Cell proliferation assay; type: cell-based, Homo sapiens; settings: SNU-739, liver, hepatocellular carcinoma, 72 hours
Experimental: as §1

NCI-H460 = assay: Cell proliferation assay; type: cell-based, Homo sapiens; settings: NCI-H460, lung carcinoma, 72 hours
Experimental: as §1

COLO 205 = assay: Subcutaneous COLO 205 colorectal cancer xenograft; type: in vivo, BALB/c nude mice; settings: 26 days, measured day 25
Experimental: (§2) The efficacy of GLR2007 was evaluated in human GBM and breast cancer orthotopic cell-line-derived xenografts in NOD/SCID mice (Shanghai Lingchang Biotechnology Co. Ltd, Shanghai, China) and BALB/c nude mice (Shanghai Sino-British SIPPR/BK Laboratory Animal Co. Ltd, Shanghai, China), and human lung, colorectal, and liver cancer subcutaneous cell-line-derived xenografts in BALB/c nude mice (Nanjing University National Resource Center, Nanjing, China, or Beijing Anikeeper Biotech Co., Beijing, China). Mice were maintained in humidity- and temperature-controlled conditions with food and water available ad libitum. For subcutaneous models, female BALB/c nude mice were inoculated at 4–8 weeks old with 3×10^6–1×10^7 tumor cells (see Table 1 for xenograft model cell types) in the right flank for tumor development. Randomization was performed when the mean tumor volume reached 118–171 mm^3.

Glioma 261 = assay: Cell proliferation assay; type: cell-based, Mus musculus; settings: Glioma 261, brain, murine glioma, 72 hours
Experimental: as §1

H22 = assay: Cell proliferation assay; type: cell-based, Mus musculus; settings: H22, liver, hepatocellular carcinoma, 72 hours
Experimental: as §1

Hepa1-6 = assay: Cell proliferation assay; type: cell-based, Mus musculus; settings: Hepa1-6, liver, hepatocellular carcinoma, 72 hours
Experimental: as §1

Colon-26 = assay: Cell proliferation assay; type: cell-based, Mus musculus; settings: Colon-26, colorectal carcinoma, 72 hours
Experimental: as §1

BNL CL.2 = assay: Cell proliferation assay; type: cell-based, Mus musculus; settings: BNL CL.2, liver, normal, 72 hours
Experimental: as §1

4T1 = assay: Cell proliferation assay; type: cell-based, Mus musculus; settings: 4T1, breast carcinoma, 72 hours
Experimental: as §1

U87-luc tumor cells = assay: Orthotopic U87-luc glioblastoma xenograft; type: in vivo, BALB/c nude mice; settings: for TGI (%) / Increase in median survival time (%): 42 days; for TGI (%): measured day 21, bioluminescence; for Increase in median survival time (%): versus vehicle group
Experimental: as §2, with “libitum.” for “libitum. For subcutaneous models, female BALB/c nude mice were inoculated at 4–8 weeks old with 3×10^6–1×10^7 tumor cells (see Table 1 for xenograft model cell types) in the right flank for tumor development. Randomization was performed when the mean tumor volume reached 118–171 mm^3.”
In a GBM orthotopic xenograft study, female BALB/c nude mice were inoculated intracranially at 6–8 weeks old with 3×10^5 U87-luc tumor cells plus Matrigel (Corning Life Sciences, Tewksbury, MA, USA) in a 4:1 ratio in PBS at the right frontal lobe. Tumor growth was quantified using intraperitoneal administration of 150 mg/kg luciferin to anesthetized mice, and tumor bioluminescence was measured using an IVIS Lumina II imaging system (PerkinElmer Inc.). In one study, mice were randomized at day 6 after tumor implantation (mean bioluminescence of 2.81×10^7 photons/sec), and in the other, mice were randomized at day 14 or day 15 (mean bioluminescence of 7.49×10^6 photons/sec).
Statistical analysis of differences in mean tumor volume among groups was conducted via an independent samples t-test or one-way analysis of variance (ANOVA; two-sided Dunnett’s test). For comparison among three or more groups, a one-way ANOVA was performed. Multiple comparison procedures were applied after ANOVA when significant F-statistics (ratio of treatment variance to error variance) were obtained. Comparisons between groups were carried out using the Games test. P<0.05 was considered to be statistically significant. Survival times were analyzed using the Kaplan–Meier method, with curves constructed for each group and the log-rank (Mantel–Cox) test used to compare survival curves between groups. Body weight change was calculated based on the weight on the first day of dosing.

BN2289 = assay: Subcutaneous BN2289 glioblastoma xenograft; type: in vivo, BALB/c nude mice; settings: 28 days, measured day 21
Experimental: as §2

## CCN1CCN(Cc2ccc(Nc3ncc(F)c(-c4cc(F)c5nc(C)n(C(C)C)c5c4)n3)nc2)CC1 [Abemaciclib, abemaciclib, reference compound]
BRL-3a; Rattus norvegicus
  IC50: 10000 nM
Huh-7; Homo sapiens
  IC50: 75 nM
HCC827; Homo sapiens
  IC50: 16 nM
SNU-398; Homo sapiens
  IC50: 173 nM
LN229; Homo sapiens, LN-229
  IC50: 35 nM
MDA-MB-468; Homo sapiens
  IC50: 1250 nM
SNU-739; Homo sapiens
  IC50: 383 nM
NCI-H460; Homo sapiens
  IC50: 654 nM
COLO 205; 25 mg/kg daily oral
  TGI (%): 57.7%
Glioma 261; Mus musculus
  IC50: 2520 nM
H22; Mus musculus
  IC50: 3580 nM
Hepa1-6; Mus musculus
  IC50: 1270 nM
Colon-26; Mus musculus
  IC50: > 10000 nM
BNL CL.2; Mus musculus
  IC50: 10000 nM
4T1; Mus musculus
  IC50: 4790 nM
U87-luc tumor cells; 150 mg/kg daily oral
  TGI (%): 79.0%
  Increase in median survival time (%): 54.4%
BN2289; 25 mg/kg daily oral
  TGI (%): 24.9%

## CC1=Nc2c(F)cc(-c3nc(Nc4ccc(C5CCN(C)CC5)cn4)ncc3F)cc2C12CCCC2 [GLR2007]
BRL-3a
  IC50: 1870 nM
Huh-7
  IC50: 43 nM
HCC827
  IC50: 15 nM
SNU-398
  IC50: 51 nM
LN229
  IC50: 17 nM
MDA-MB-468
  IC50: 1940 nM
SNU-739
  IC50: 100 nM
NCI-H460
  IC50: 235 nM
COLO 205; 5 mg/kg daily oral
  TGI (%): 42.6%
COLO 205; 25 mg/kg daily oral
  TGI (%): 72.2%
Glioma 261
  IC50: 1970 nM
H22
  IC50: 1840 nM
Hepa1-6
  IC50: 526 nM
Colon-26
  IC50: 2120 nM
BNL CL.2
  IC50: 1940 nM
4T1
  IC50: 1940 nM
U87-luc tumor cells; 12.5 mg/kg daily oral
  TGI (%): 86.3%
  Increase in median survival time (%): 50.0%
U87-luc tumor cells; orthotopic U87-luc xenograft mice treated for 42 days
  Weight loss, GLR2007 versus abemaciclib groups: comparable
BN2289; 5 mg/kg daily oral
  TGI (%): 4.9%
BN2289; 25 mg/kg daily oral
  TGI (%): 39.4%
BN2289; 50 mg/kg daily oral
  TGI (%): 56.4%
